Measurements: publication PMC9866366 (Pharmaceutics, 2023)
Square brackets hold non-standard residues; d marks the D form. Peptide text beside a SMILES is read from it. * marks the point of attachment. Alaψ(CH2NMeCH2CH2OH) = C[C@@H](CN(C)CCO)N*; Decanoyl(2R-Me) = CCCCCCCC[C@@H](C)C(=O)*; Cha = N[C@@H](CC1CCCCC1)C(=O)O; Aib = CC(C)(N)C(=O)O

Experiments:
[1] = system: DU-145 human prostate cancer cells; conditions: coculture model with prostate stromal cells (PrSC); cited from earlier work
Excerpt: (§1) Over the last decade, research in our group has focused on the synthesis and biological evaluation of aminolipopeptides as new generation anticancer therapeutics. They are structurally defined by the α,α-dialkylated amino acid 2-aminoisobutyric acid (Aib) and an acylated N-terminus. A subset of this family, containing the non-natural building block 2-amino-6-hydroxy-4-methyl-8-oxodecanoic acid (AHMOD), has provided two promising leads in leucinostatin A (1) and culicinin D (2).

BxPC-3 = conditions: MTT assay; only when cultured under minimal glucose in the growth medium; cited from earlier work
Excerpt: (§2) Intriguingly, there exists a precedence for this observation: the recent discovery of the leucinostatin Y by Kawada’s group was also reported alongside a comparative […] (MTT) assay against the parent peptide leucinostatin A (1) on the human PDAC cell lines PANC-1, BxPC-3, PSN-1, and PK-8 [21]. […] On this basis, we opted to re-evaluate the cytotoxicity of both trichoderins (3) and (4) against BxPC-3 and ...

PANC-1 = conditions: MTT assay; only when cultured under minimal glucose in the growth medium; cited from earlier work
Excerpt: as §2

PK-8 = conditions: MTT assay; only when cultured under minimal glucose in the growth medium; cited from earlier work
Excerpt: as §2

PSN-1 = conditions: MTT assay; only when cultured under minimal glucose in the growth medium; cited from earlier work
Excerpt: as §2

BxPC-3 cells [2] = experiment: PrestoBlue cell viability assay, comparative cytotoxicity assay under 'low glucose'; format: cell-based, human; conditions: 24 h exposure
Excerpt: (§3) Endpoint fluorescence was quantified as described above.

PANC-1 cells [3] = experiment: as above; format: cell-based, human; conditions: 24 h exposure
Excerpt: as §3

BxPC-3 cells [4] = experiment: CyQUANT Direct cell proliferation assay, comparative cytotoxicity assay under 'low glucose'; format: cell-based, human; conditions: 24 h exposure
Excerpt: as §3

PANC-1 cells [5] = experiment: as above; format: cell-based, human; conditions: 24 h exposure
Excerpt: as §3

BxPC-3 cells [6] = experiment: Initial cytotoxicity assay (PrestoBlue and CyQUANT Direct Confirmation Assay), 25 mM glucose; format: cell-based, human; conditions: 3-day (72 h) incubation, RPMI-1640 with 25 mM glucose, up to highest concentration tested of 1 µM, both viability assays
Description: The CyQUANT™ Direct Cell Proliferation Assay was subsequently performed by mixing the CyQUANT™ Direct nucleic acid stain, CyQUANT™ Direct background suppressor I, and PBS (pH 7.4) as per the vendor instructions, then adding 100 µL of this mixture into each well. The plate was returned into the incubator for a further 1 h, and the endpoint fluorescence bottom-read at the Ex/Em wavelength of 485/538 nm on the SpectraMax iD3 plate reader. Blank wells (medium only) and two negative controls—(1) cells + medium, (2) cells + medium + 0.3% v/v DMSO (equivalent to 1 µM peptide)—were set up in the plate for each experiment.

BxPC-3 cells [7] = conditions: 24 h exposure, medium with or without 5 mM glucose, up to 1 µM
Description: (§4) Cells were seeded at a density of 25,000 cells/well (BxPC-3) and 30,000 cells/well (PANC-1) in Nunc MicroWell 96-Well Black Optical-Bottom Plates with Polymer Base (total volume: 100 µL). Cells were first incubated overnight at 37 °C, 5% CO2 to permit adherence, after which the medium in each well was aspirated, briefly washed once with 100 µL/well of PBS (pH 7.4) and replaced with 100 µL of either RPMI 1640 (BxPC-3, #11879020) or DMEM (PANC-1, #11966025) supplemented with or without 5 mM glucose to create the ‘normal glucose’ and ‘low glucose’ media, respectively. This 5 mM glucose concentration was selected to reflect the physiological concentration of glucose in plasma. Each well was then exposed to the peptides in duplicate at a concentration range of 50.8 pM to 1 µM (BxPC-3) or 457 pM to 9 µM (PANC-1) for 24 h (threefold serial dilution in the corresponding ‘normal glucose’ or ‘low glucose’ media, ten steps). Endpoint fluorescence was quantified as described above.
(§5) Blank correction (wells containing medium only) was first performed on the raw fluorescence–concentration data from the plate reader. Cell viability was then calculated as a percentage by normalizing to the fluorescence of the wells containing the lowest drug concentration (50.8 pM for BxPC-3, 457 pM for PANC-1). The resulting data from three independent experiments (each in technical duplicate) was then plotted on GraphPad Prism 9 and analyzed using the built-in ‘[Inhibitor] vs. response—Variable slope (four parameters)’ equation.

PANC-1 cells [8] = conditions: 24 h exposure, medium with or without 5 mM glucose, up to 9 µM
Description: as §4, §5

[9] = system: MDA-MB-468 human breast cancer cells; conditions: via inhibition of the mTOR signaling pathway; cited from earlier work
Excerpt: as §1

[10] = 'low glucose' RPMI 1640 (no glucose added), 50.8 pM to 1 µM, three independent experiments each in technical duplicate
[11] = 'low glucose', area under viability-concentration curve, baseline y = 0, three independent experiments in duplicate
[12] = 'low glucose', response (percent viability) at highest concentration 1 µM, three independent experiments in duplicate
[13] = 'low glucose' DMEM (no glucose added), 457 pM to 9 µM, three independent experiments each in technical duplicate
[14] = 'low glucose', response (percent viability) at highest concentration 9 µM, three independent experiments in duplicate

## leucinostatin A [(1)]
[1]
  Cytotoxicity against DU-145 (in words): cytotoxic
BxPC-3
  Cytotoxicity against BxPC-3 (in words): selectively cytotoxic
PANC-1
  Cytotoxicity against PANC-1 (in words): selectively cytotoxic
PK-8
  Cytotoxicity against PK-8 (in words): selectively cytotoxic
PSN-1
  Cytotoxicity against PSN-1 (in words): selectively cytotoxic

## CCCCCCCC[C@@H](C)C(=O)N1CCC[C@H]1C(=O)N[C@@H](CC1CCCCC1)C(=O)NC(C)(C)C(=O)NC(C)(C)C(=O)N[C@H](C(=O)N[C@H](C(=O)NC(C)(C)C(=O)NC(C)(C)C(=O)N[C@@H](C)CN(C)CCO)C(C)C)[C@@H](C)CC [(4)] ({Decanoyl(2R-Me)}-P[Cha][Aib][Aib]IV[Aib][Aib]-{Alaψ(CH2NMeCH2CH2OH)})
BxPC-3 cells [2]; [10]
  IC50: 400 nM
BxPC-3 cells [2]; [11]
  AUC, PrestoBlue, BxPC-3: 5.1 ×10^−5
BxPC-3 cells [2]; [12]
  Emax @ 1 µM, PrestoBlue, BxPC-3: 1.7%
PANC-1 cells [3]; [13]
  IC50: 500 nM
PANC-1 cells [3]; [11]
  AUC, PrestoBlue, PANC-1: 23.1 ×10^−5
PANC-1 cells [3]; [14]
  Emax @ 9 µM, PrestoBlue, PANC-1: 2.3%
BxPC-3 cells [4]; [10]
  IC50: 400 nM
BxPC-3 cells [4]; [11]
  AUC, CyQUANT Direct, BxPC-3: 5.4 ×10^−5
BxPC-3 cells [4]; [12]
  Emax @ 1 µM, CyQUANT Direct, BxPC-3: 21.0%
PANC-1 cells [5]; [13]
  IC50: 1300 nM
PANC-1 cells [5]; [11]
  AUC, CyQUANT Direct, PANC-1: 39.6 ×10^−5
PANC-1 cells [5]; [14]
  Emax @ 9 µM, CyQUANT Direct, PANC-1: 29.2%
BxPC-3 cells [6]
  Inhibition of proliferation of BxPC-3 cells (in words): only partially inhibited the proliferation
BxPC-3 cells [7]
  Cytotoxicity against BxPC-3 under 'low glucose' vs 'normal glucose' (in words): selective toxicity under the ‘low glucose’ condition
PANC-1 cells [8]
  Cytotoxicity against PANC-1 under 'low glucose' vs 'normal glucose' (in words): selective toxicity under the ‘low glucose’ condition

## culicinin D [(2)]
[9]
  Toxicity against MDA-MB-468 (in words): selectively toxic
